Experimental data published in publication PMC12059944, “Synthesis and Antileishmanial Evaluation of N-Phenyl-2-phenoxyacetamides Derived from Carvacrol” (ACS Omega, 2025).
Like-named read-outs stand apart in the source and are kept apart here.

Key:
[1] = Cytotoxicity assay in macrophage RAW 264.7 (resazurin); assay type: cell-based; details: mouse, RAW 264.7 macrophages, pH 7.2; RAW 264.7 cells, 200 to 1.56 μM, 48 h treatment, resazurin
Experimental: (§1) RAW 264.7 cells were cultured in Roswell Park Memorial Institute (RPMI) medium, pH 7.2, supplemented with 10% (v/v) heat-inactivated fetal bovine serum (FBS) (Gibco), 100 μg mL^–1 penicillin (Sigma), 2 g L^–1 sodium bicarbonate, 2 mM L-glutamine, and 25 mM HEPES, and maintained at 37 °C in a humidified incubator with 5% CO2 atmosphere.[27] The cells were then seeded into sterile 96-well plates at a density of 5 × 10^4 cells/well, followed by the addition of the compounds at a concentration of 10 μM for screening, and in a range of 200 μM to 1.56 μM for the determination of the 50% cytotoxic concentration (CC50). Controls included 1% DMSO and amphotericin B at 3.125 μg mL^–1, with 48 h of treatment. Cell viability was assessed using 1 mM resazurin, with subsequent readings performed on a Spectramax spectrophotometer at wavelengths of 570 and 600 nm.

RAW 264.7 macrophages = assay: as above; assay type: cell-based; details: RAW 264.7 cells, highest concentration (200 μM), 48 h
Experimental: as §1

[2] = Cytotoxicity assay in Vero cells (MTT); assay type: cell-based, African green monkey (Cercopithecus aethiops); details: African green monkey, Vero cells (ATCC CCL-81), pH 7.3, MTT, 1 × 10^4 cells per well, 500 to 7.8 μM
Experimental: (§2) The Vero cell (ATCC, CCL-81) was cultured in Dulbecco’s modified Eagle medium (DMEM), pH 7.3, supplemented with 10% FBS (v/v) and a penicillin/streptomycin solution (0.1 mg mL^–1/100 U mL^–1). The cells were incubated at 37 °C in a humidified atmosphere with 5% CO2. The MTT reduction assay (3-(4,5-dimethylthiazol-2-yl)-2,5-diphenyltetrazolium bromide) was adapted from Mosmann[43] to evaluate cytotoxicity. For this assay, 1 × 10^4 cells per well were seeded in 96-well plates and incubated overnight until reaching approximately 80% confluence. Wells were treated with different compound concentrations (500 to 7.8 μM) in triplicate. The culture medium was replaced with 0.5 mg mL^–1 MTT solution, and the plate was incubated for 3 h. The resulting formazan crystals were solubilized in DMSO, and absorbance was measured using a Spectramax spectrophotometer at a wavelength of 540 nm to assess cell viability.

Vero cells [3] = assay: Cytotoxicity assay in Vero cells (MTT); assay type: cell-based, African green monkey (Cercopithecus aethiops)
Experimental: as §2

[4] = tested on: L. braziliensis MHOM/BR/75/M2904; assay: In vitro infection of RAW 264.7 macrophages by L. braziliensis-GFP (leishmanicidal screening); assay type: cell-based; details: Leishmania braziliensis; for viability at 10 µM: RAW264.7, 48 h, read-out: parasite viability; for IC50: RAW264.7, suggested from the 10 μM screening, L. braziliensis in RAW 264.7 macrophages, 48 h
Experimental: L. braziliensis MHOM/BR/75/M2904 was cultured in Grace’s insect medium (pH 6.5) supplemented with 10% (v/v) heat-inactivated fetal bovine serum (FBS) (Gibco), 100 μg mL^–1 penicillin (Sigma), and 2 mM L-glutamine, maintained at 25 °C in a B.O.D. incubator. Using the stationary phase culture on the seventh day, 2.0 × 10^6Leishmania/well were transferred to a 96-well plate containing 1.0 × 10^5 preadhered macrophages/well, following an adapted infection protocol.[44] After applying the compounds at a concentration of 10 μM, 1% DMSO and amphotericin B (3.125 μg mL^–1) were used as controls. Treatments were conducted for 48 h, followed by macrophage lysis using 0.1% SDS solution, which was subsequently neutralized with complete Grace’s medium. To recover promastigote forms, the plate was incubated for 5 days. Fluorescence was measured using a Spectramax fluorometer, with excitation at 490 nm and emission at 520 nm.

Vero cells [5] = tested on: Vero cells; set-up: method as in earlier work; details: 15 μg mL^–1 (equivalent to 16.23 μM), neutral red cytotoxicity assay; cited from earlier work
[6] = tested on: murine peritoneal macrophages; set-up: method as in PMID 36375398; details: cited from earlier work
human monocyte cell line = tested on: human monocyte cell line; set-up: method as in PMID 32272211; details: 48 h treatment, cited from earlier work
Vero cells [7] = tested on: Vero cells; set-up: method as in PMID 29877104; details: 5 × 10^4 cells per well, cited from earlier work
L. amazonensis = tested on: L. amazonensis; set-up: method as in PMID 32272211; details: L. amazonensis amastigote stage, 48 h treatment, cited from earlier work
[8] = high concentrations (500 and 250 μM)
[9] = all tested concentrations (500 to 7.8 μM)
[10] = converted from μg mL^–1, read-out: CC50 (equivalent)

Compound | CC50 at 48 h [1] | cell viability at the highest concentration compared to the control (RAW 264.7 macrophages) | CC50 [2] | survival rate (Vero cells [3]; [8]) | survival rate (Vero cells [3]; [9]) | further results
Cc1ccc(C(C)C)cc1OCC(=O)Nc1ccccc1Cl [Compound 1, N-(2-Chlorophenyl)-2-(5-isopropyl-2-methylphenoxy)acetamide] | > 200 µM | no significant differences | 200 µM | below 50% | – | –
Cc1ccc(C(C)C)cc1OCC(=O)Nc1cccc(Cl)c1 [Compound 2, N-(3-Chlorophenyl)-2-(5-isopropyl-2-methylphenoxy)acetamide] | > 200 µM | – | – | – | above 50% | –
Cc1ccc(C(C)C)cc1OCC(=O)Nc1ccc(Cl)cc1 [Compound 3, N-(4-Chlorophenyl)-2-(5-isopropyl-2-methylphenoxy)acetamide] | > 200 µM | – | 449 µM | below 50% | – | –
Cc1ccc(C(C)C)cc1OCC(=O)Nc1ccccc1Br [Compound 4, N-(2-Bromophenyl)-2-(5-isopropyl-2-methylphenoxy)acetamide] | > 200 µM | – | 372 µM | below 50% | – | –
Cc1ccc(C(C)C)cc1OCC(=O)Nc1cccc(Br)c1 [Compound 5, N-(3-Bromophenyl)-2-(5-isopropyl-2-methylphenoxy)acetamide] | > 200 µM | no significant differences | – | – | above 50% | viability at 10 µM [4]: ~50%; IC50 [4]: ~10 µM
Cc1ccc(C(C)C)cc1OCC(=O)Nc1ccc(Br)cc1 [Compound 6, N-(4-Bromophenyl)-2-(5-isopropyl-2-methylphenoxy)acetamide] | > 200 µM | no significant differences | 182 µM | below 50% | – | –
Cc1ccc(C(C)C)cc1OCC(=O)Nc1ccccc1F [Compound 7, N-(2-Fluorophenyl)-2-(5-isopropyl-2-methylphenoxy)acetamide] | > 200 µM | no significant differences | – | – | above 50% | viability at 10 µM [4]: ~50%; IC50 [4]: ~10 µM
Cc1ccc(C(C)C)cc1OCC(=O)Nc1cccc(F)c1 [Compound 8, N-(3-Fluorophenyl)-2-(5-isopropyl-2-methylphenoxy)acetamide] | > 200 µM | – | 337 µM | below 50% | – | –
Cc1ccc(C(C)C)cc1OCC(=O)Nc1ccc(F)cc1 [Compound 9, N-(4-Fluorophenyl)-2-(5-isopropyl-2-methylphenoxy)acetamide] | > 200 µM | – | – | – | above 50% | –
Cc1ccc(C(C)C)cc1OCC(=O)Nc1ccccc1 [Compound 10, 2-(5-Isopropyl-2-methylphenoxy)-N-phenylacetamide] | > 200 µM | – | – | – | above 50% | –
C[C@@H]1[C@H](O)[C@@H](C)/C=C/C=C/C=C/C=C/C=C/C=C/C=C/[C@H](O[C@@H]2O[C@H](C)[C@@H](O)[C@H](N)[C@@H]2O)C[C@@H]2O[C@](O)(C[C@@H](O)C[C@@H](O)[C@H](O)CC[C@@H](O)C[C@@H](O)CC(=O)O[C@H]1C)C[C@H](O)[C@H]2C(=O)O [amphotericin B] | – | – | – | – | – | toxicity (Vero cells [5]): over 70%
Cc1ccc(C(C)C)cc1O [carvacrol] | – | – | – | – | – | CC50 ([6]; 24 h treatment, converted from μg mL^–1, read-out: CC50 (equivalent)): 505 µM; CC50 ([6]; 24 h treatment): 75.91 μg mL^–1; CC50 ([6]; 72 h treatment, converted from μg mL^–1, read-out: CC50 (equivalent)): 268 µM; CC50 ([6]; 72 h treatment): 40.23 μg mL^–1; CC50 (human monocyte cell line; [10]): 427 µM; CC50 (human monocyte cell line): 64.10 μg mL^–1; CC50 (Vero cells [7]; [10]): 572 µM; CC50 (Vero cells [7]): 86 ± 1.41 μg mL^–1; IC50 (L. amazonensis; converted from μg mL^–1, read-out: IC50 (equivalent)): ~182 µM; IC50 (L. amazonensis): approximately 27.40 μg mL^–1
